Test results as given in paper PMC10817531, “Chlorinated Enyne Fatty Acid Amides from a Marine Cyanobacterium: Discovery of Taveuniamides L-M and Pharmacological Characterization of Taveuniamide F as a GPCR Antagonist with CNR1 Selectivity” (Marine Drugs, 2023).

Experiments:
Experiment in all cases: PathHunter β-arrestin GpcrMAX assay
Type in all cases: cell-based
ADRA2C = molecular target: T1, ADRA2C (Homo sapiens, UniProt P18825)
T1 construct: purchased DiscoveRx (Eurofins) gpcrMAX PathHunter β-arrestin panel
Description: (§1) GpcrMAX panel biosensor assays were used to characterize taveuniamide F (4, 20 µM) (agonist and antagonist mode). The experiments were carried out by DiscoveRx Corporation (Fremont, CA, USA) as described before, using PathHunter β-arrestin enzyme fragment complementation (EFC) technology.

ADRB2 = ADRB2 (Homo sapiens, UniProt P07550)
Description: as §1

AGTR1 = AGTR1 (Homo sapiens, UniProt P30556)
Sequence of AGTR1 (P30556 whole entry): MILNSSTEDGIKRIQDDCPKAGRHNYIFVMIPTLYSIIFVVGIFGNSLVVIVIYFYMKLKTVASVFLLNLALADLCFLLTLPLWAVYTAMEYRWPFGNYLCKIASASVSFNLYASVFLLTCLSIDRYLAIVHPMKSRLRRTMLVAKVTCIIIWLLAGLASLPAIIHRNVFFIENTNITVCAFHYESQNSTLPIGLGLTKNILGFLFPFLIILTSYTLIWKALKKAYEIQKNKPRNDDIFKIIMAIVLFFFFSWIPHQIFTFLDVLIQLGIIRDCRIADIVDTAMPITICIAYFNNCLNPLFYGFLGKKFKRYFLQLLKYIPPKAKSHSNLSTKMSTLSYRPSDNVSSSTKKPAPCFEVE
Description: as §1

AVPR1B = AVPR1B (Homo sapiens, UniProt P47901)
Description: as §1

BRS3 = BRS3 (Homo sapiens, UniProt P32247)
Description: as §1

CALCR-RAMP2 = CALCR-RAMP2 (Homo sapiens, UniProt O60895+P30988)
Description: as §1

CCR1 = molecular target: T2, CCR1 (Homo sapiens, UniProt P32246)
T2 construct: purchased DiscoveRx (Eurofins) gpcrMAX PathHunter β-arrestin panel
T2 sequence (P32246 whole entry): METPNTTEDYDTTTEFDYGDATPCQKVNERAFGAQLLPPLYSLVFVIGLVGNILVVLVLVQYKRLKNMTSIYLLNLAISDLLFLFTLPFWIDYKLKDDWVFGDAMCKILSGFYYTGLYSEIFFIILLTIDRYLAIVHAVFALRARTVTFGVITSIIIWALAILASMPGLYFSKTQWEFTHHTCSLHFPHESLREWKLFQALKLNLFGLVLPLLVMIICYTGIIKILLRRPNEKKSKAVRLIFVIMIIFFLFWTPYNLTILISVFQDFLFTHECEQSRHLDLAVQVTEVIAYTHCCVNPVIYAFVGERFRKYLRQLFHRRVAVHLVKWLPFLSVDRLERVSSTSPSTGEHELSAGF
Description: as §1

CCR10 = molecular target: T3, CCR10 (Homo sapiens, UniProt P46092)
T3 construct: purchased DiscoveRx (Eurofins) gpcrMAX PathHunter β-arrestin panel
Description: as §1

CCR3 = molecular target: T4, CCR3 (Homo sapiens, UniProt P51677)
T4 construct: purchased DiscoveRx (Eurofins) gpcrMAX PathHunter β-arrestin panel
Description: as §1

CCR5 = molecular target: T5, CCR5 (Homo sapiens, UniProt P51681)
T5 construct: purchased DiscoveRx (Eurofins) gpcrMAX PathHunter β-arrestin panel
Description: as §1

CCR7 = molecular target: T6, CCR7 (Homo sapiens, UniProt P32248)
T6 construct: purchased DiscoveRx (Eurofins) gpcrMAX PathHunter β-arrestin panel
Description: as §1

CCR8 = molecular target: T7, CCR8 (Homo sapiens, UniProt P51685)
T7 construct: purchased DiscoveRx (Eurofins) gpcrMAX PathHunter β-arrestin panel
T7 sequence (P51685 whole entry): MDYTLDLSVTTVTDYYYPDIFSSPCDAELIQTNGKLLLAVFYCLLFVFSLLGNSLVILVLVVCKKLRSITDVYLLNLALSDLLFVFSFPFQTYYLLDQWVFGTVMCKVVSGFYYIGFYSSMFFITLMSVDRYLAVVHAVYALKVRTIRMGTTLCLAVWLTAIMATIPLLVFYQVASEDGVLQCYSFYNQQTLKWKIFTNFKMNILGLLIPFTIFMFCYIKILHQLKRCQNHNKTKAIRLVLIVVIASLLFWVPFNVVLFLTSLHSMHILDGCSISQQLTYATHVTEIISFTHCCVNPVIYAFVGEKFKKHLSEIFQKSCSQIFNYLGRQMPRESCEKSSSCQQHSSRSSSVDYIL
Description: as §1

CRHR1 = molecular target: T8, CRHR1 (Homo sapiens, UniProt P34998)
T8 construct: purchased DiscoveRx (Eurofins) gpcrMAX PathHunter β-arrestin panel
Description: as §1

CRHR2 = molecular target: T9, CRHR2 (Homo sapiens, UniProt Q13324)
T9 construct: purchased DiscoveRx (Eurofins) gpcrMAX PathHunter β-arrestin panel
T9 sequence (Q13324 whole entry): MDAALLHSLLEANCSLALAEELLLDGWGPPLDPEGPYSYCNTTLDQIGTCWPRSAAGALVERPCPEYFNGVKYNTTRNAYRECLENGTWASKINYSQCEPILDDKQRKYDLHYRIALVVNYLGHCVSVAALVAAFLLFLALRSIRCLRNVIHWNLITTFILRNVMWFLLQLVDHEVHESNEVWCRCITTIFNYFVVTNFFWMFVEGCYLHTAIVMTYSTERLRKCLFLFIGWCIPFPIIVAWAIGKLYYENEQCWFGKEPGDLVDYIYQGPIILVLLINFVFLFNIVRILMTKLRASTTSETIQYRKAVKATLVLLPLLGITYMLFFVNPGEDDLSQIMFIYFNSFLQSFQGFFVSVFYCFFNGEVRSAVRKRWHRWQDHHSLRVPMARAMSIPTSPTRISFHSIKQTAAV
Description: as §1

CXCR5 = molecular target: T10, CXCR5 (Homo sapiens, UniProt P32302)
T10 construct: purchased DiscoveRx (Eurofins) gpcrMAX PathHunter β-arrestin panel
Description: as §1

CXCR6 = molecular target: T11, CXCR6 (Homo sapiens, UniProt O00574)
T11 construct: purchased DiscoveRx (Eurofins) gpcrMAX PathHunter β-arrestin panel
Description: as §1

DRD2L = molecular target: T12, DRD2L (Homo sapiens, UniProt P14416)
T12 construct: purchased DiscoveRx (Eurofins) gpcrMAX PathHunter β-arrestin panel
T12 sequence (P14416 whole entry): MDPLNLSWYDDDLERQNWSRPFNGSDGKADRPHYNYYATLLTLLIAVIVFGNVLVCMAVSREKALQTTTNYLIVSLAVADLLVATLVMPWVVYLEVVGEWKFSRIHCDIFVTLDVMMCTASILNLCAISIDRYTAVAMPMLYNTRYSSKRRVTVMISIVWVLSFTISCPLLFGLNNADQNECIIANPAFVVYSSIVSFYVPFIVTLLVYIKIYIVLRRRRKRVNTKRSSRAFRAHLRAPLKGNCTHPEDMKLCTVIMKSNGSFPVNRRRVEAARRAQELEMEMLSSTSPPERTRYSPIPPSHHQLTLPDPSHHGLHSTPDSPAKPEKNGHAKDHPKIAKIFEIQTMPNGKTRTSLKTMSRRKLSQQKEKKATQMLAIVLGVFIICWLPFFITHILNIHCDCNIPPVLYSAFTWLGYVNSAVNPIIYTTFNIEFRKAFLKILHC
Description: as §1

DRD4 = molecular target: T13, DRD4 (Homo sapiens, UniProt P21917)
T13 construct: purchased DiscoveRx (Eurofins) gpcrMAX PathHunter β-arrestin panel
T13 sequence (P21917 whole entry): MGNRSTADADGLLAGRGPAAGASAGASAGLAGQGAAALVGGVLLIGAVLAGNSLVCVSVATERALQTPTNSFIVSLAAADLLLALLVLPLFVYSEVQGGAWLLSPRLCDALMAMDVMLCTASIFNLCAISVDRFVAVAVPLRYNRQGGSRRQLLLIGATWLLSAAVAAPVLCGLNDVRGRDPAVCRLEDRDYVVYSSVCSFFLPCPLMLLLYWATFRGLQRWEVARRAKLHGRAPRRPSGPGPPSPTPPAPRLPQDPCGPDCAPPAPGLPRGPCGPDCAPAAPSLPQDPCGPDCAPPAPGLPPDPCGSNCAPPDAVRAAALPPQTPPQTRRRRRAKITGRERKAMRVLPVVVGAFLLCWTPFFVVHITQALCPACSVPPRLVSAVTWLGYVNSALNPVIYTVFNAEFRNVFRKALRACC
Description: as §1

EDG7 = molecular target: T14, EDG7 (Homo sapiens, UniProt Q9UBY5)
T14 construct: purchased DiscoveRx (Eurofins) gpcrMAX PathHunter β-arrestin panel
Description: as §1

EDNRA = molecular target: T15, EDNRA (Homo sapiens, UniProt P25101)
T15 construct: purchased DiscoveRx (Eurofins) gpcrMAX PathHunter β-arrestin panel
Description: as §1

EDNRB = molecular target: T16, EDNRB (Homo sapiens, UniProt P24530)
T16 construct: purchased DiscoveRx (Eurofins) gpcrMAX PathHunter β-arrestin panel
Description: as §1

F2R = molecular target: T17, F2R (Homo sapiens, UniProt P25116)
T17 construct: purchased DiscoveRx (Eurofins) gpcrMAX PathHunter β-arrestin panel
T17 sequence (P25116 22-425): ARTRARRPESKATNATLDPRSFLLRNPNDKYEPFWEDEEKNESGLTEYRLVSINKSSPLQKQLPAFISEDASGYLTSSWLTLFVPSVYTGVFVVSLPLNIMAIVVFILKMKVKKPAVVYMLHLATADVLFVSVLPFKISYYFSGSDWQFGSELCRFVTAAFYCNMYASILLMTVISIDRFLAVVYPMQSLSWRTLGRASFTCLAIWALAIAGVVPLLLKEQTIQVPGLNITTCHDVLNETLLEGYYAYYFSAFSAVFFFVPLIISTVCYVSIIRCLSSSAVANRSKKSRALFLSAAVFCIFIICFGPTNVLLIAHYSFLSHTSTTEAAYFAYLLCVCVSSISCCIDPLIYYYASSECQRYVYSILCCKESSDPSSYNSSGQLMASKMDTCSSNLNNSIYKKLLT
Description: as §1

FFAR1 = molecular target: T18, FFAR1 (Homo sapiens, UniProt O14842)
T18 construct: purchased DiscoveRx (Eurofins) gpcrMAX PathHunter β-arrestin panel
T18 sequence (O14842 whole entry): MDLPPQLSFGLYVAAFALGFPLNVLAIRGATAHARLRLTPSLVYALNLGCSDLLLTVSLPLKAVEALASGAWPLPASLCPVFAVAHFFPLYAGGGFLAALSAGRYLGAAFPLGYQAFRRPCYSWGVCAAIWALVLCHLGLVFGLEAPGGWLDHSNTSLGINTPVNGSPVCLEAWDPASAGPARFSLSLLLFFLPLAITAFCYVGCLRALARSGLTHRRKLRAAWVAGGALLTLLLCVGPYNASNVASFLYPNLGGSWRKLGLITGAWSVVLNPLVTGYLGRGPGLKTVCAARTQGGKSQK
Description: as §1

GCGR = molecular target: T19, GCGR (Homo sapiens, UniProt P47871)
T19 construct: purchased DiscoveRx (Eurofins) gpcrMAX PathHunter β-arrestin panel
Description: as §1

GIPR = molecular target: T20, GIPR (Homo sapiens, UniProt P48546)
T20 construct: purchased DiscoveRx (Eurofins) gpcrMAX PathHunter β-arrestin panel
T20 sequence (P48546 22-466): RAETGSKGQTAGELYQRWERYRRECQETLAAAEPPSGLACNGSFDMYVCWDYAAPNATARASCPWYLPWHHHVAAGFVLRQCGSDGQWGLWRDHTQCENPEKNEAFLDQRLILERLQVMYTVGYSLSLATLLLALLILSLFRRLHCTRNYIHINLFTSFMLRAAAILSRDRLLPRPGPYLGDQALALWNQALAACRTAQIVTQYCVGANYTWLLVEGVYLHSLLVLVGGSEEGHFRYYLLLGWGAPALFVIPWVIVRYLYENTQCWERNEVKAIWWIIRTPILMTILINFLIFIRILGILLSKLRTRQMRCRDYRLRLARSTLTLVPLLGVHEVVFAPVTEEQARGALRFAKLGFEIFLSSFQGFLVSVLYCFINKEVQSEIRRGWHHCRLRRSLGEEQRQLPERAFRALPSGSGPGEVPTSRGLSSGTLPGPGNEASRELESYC
Description: as §1

GPR109A = molecular target: T21, GPR109A (Homo sapiens, UniProt Q8TDS4)
T21 construct: purchased DiscoveRx (Eurofins) gpcrMAX PathHunter β-arrestin panel
Description: as §1

HRH1 = molecular target: T22, HRH1 (Homo sapiens, UniProt P35367)
T22 construct: purchased DiscoveRx (Eurofins) gpcrMAX PathHunter β-arrestin panel
T22 sequence (P35367 whole entry): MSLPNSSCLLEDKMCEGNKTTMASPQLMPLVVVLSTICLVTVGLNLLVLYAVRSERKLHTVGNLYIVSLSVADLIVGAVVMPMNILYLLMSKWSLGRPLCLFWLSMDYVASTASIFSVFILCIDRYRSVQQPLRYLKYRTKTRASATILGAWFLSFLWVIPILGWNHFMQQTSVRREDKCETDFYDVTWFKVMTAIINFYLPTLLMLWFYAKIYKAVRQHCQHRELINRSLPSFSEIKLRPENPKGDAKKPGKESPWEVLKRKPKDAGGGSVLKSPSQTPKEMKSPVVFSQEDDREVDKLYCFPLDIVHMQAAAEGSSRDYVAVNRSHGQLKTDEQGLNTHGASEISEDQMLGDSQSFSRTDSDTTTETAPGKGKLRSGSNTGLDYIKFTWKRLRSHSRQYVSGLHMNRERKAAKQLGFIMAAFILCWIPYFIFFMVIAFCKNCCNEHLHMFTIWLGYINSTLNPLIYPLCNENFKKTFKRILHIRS
Description: as §1

HRH4 = molecular target: T23, HRH4 (Homo sapiens, UniProt Q9H3N8)
T23 construct: purchased DiscoveRx (Eurofins) gpcrMAX PathHunter β-arrestin panel
Description: as §1

HTR1A = molecular target: T24, HTR1A (Homo sapiens, UniProt P08908)
T24 construct: purchased DiscoveRx (Eurofins) gpcrMAX PathHunter β-arrestin panel
Description: as §1

HTR5A = molecular target: T25, HTR5A (Homo sapiens, UniProt P47898)
T25 construct: purchased DiscoveRx (Eurofins) gpcrMAX PathHunter β-arrestin panel
T25 sequence (P47898 whole entry): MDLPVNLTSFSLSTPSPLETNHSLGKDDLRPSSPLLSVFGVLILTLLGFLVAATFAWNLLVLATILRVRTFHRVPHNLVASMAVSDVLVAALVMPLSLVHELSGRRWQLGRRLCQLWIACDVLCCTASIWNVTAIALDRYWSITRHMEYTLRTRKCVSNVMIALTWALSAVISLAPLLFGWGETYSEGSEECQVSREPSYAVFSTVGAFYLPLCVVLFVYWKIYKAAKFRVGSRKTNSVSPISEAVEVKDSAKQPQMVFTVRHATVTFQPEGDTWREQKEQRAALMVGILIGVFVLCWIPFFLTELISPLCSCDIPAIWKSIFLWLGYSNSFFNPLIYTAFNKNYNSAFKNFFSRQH
Description: as §1

MC1R = molecular target: T26, MC1R (Homo sapiens, UniProt Q01726)
T26 construct: purchased DiscoveRx (Eurofins) gpcrMAX PathHunter β-arrestin panel
T26 sequence (Q01726 whole entry): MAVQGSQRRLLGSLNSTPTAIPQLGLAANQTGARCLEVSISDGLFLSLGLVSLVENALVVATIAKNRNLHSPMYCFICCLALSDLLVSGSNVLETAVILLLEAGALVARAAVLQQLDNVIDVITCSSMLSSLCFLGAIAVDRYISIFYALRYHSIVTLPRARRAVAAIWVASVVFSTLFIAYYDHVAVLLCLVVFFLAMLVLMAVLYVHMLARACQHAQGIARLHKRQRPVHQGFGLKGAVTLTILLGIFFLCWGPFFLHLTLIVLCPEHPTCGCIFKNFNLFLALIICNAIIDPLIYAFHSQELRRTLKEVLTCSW
Description: as §1

MRGPRX2 = molecular target: T27, MRGPRX2 (Homo sapiens, UniProt Q96LB1)
T27 construct: purchased DiscoveRx (Eurofins) gpcrMAX PathHunter β-arrestin panel
Description: as §1

NMBR = molecular target: T28, NMBR (Homo sapiens, UniProt P28336)
T28 construct: purchased DiscoveRx (Eurofins) gpcrMAX PathHunter β-arrestin panel
Description: as §1

OPRK1 = molecular target: T29, OPRK1 (Homo sapiens, UniProt P41145)
T29 construct: purchased DiscoveRx (Eurofins) gpcrMAX PathHunter β-arrestin panel
Description: as §1

OXER1 = molecular target: T30, OXER1 (Homo sapiens, UniProt Q8TDS5)
T30 construct: purchased DiscoveRx (Eurofins) gpcrMAX PathHunter β-arrestin panel
Description: as §1

P2RY1 = molecular target: T31, P2RY1 (Homo sapiens, UniProt P47900)
T31 construct: purchased DiscoveRx (Eurofins) gpcrMAX PathHunter β-arrestin panel
Description: as §1

P2RY4 = molecular target: T32, P2RY4 (Homo sapiens, UniProt P51582)
T32 construct: purchased DiscoveRx (Eurofins) gpcrMAX PathHunter β-arrestin panel
Description: as §1

PTGFR = molecular target: T33, PTGFR (Homo sapiens, UniProt P43088)
T33 construct: purchased DiscoveRx (Eurofins) gpcrMAX PathHunter β-arrestin panel
Description: as §1

PTHR1 = molecular target: T34, PTHR1 (Homo sapiens, UniProt Q03431)
T34 construct: purchased DiscoveRx (Eurofins) gpcrMAX PathHunter β-arrestin panel
Description: as §1

SSTR3 = molecular target: T35, SSTR3 (Homo sapiens, UniProt P32745)
T35 construct: purchased DiscoveRx (Eurofins) gpcrMAX PathHunter β-arrestin panel
Description: as §1

TACR1 = molecular target: T36, TACR1 (Homo sapiens, UniProt P25103)
T36 construct: purchased DiscoveRx (Eurofins) gpcrMAX PathHunter β-arrestin panel
Description: as §1

TACR2 = molecular target: T37, TACR2 (Homo sapiens, UniProt P21452)
T37 construct: purchased DiscoveRx (Eurofins) gpcrMAX PathHunter β-arrestin panel
Description: as §1

VIPR1 = molecular target: T38, VIPR1 (Homo sapiens, UniProt P32241)
T38 construct: purchased DiscoveRx (Eurofins) gpcrMAX PathHunter β-arrestin panel
Description: as §1

## CC(=O)N[C@@H](CCCC#C/C=C/Cl)CCCCCCC(Cl)Cl [Compound 4, taveuniamide F]
ADRA2C
  inhibition at 20 µM: 25.1%
ADRB2
  inhibition at 20 µM: 25.3%
AGTR1
  inhibition at 20 µM: 23.3%
AVPR1B
  inhibition at 20 µM: 57.5%
BRS3
  inhibition at 20 µM: 15.9%
CALCR-RAMP2
  inhibition at 20 µM: 58.6%
CCR1
  inhibition at 20 µM: 65.7%
CCR10
  inhibition at 20 µM: 33.3%
CCR3
  inhibition at 20 µM: 19.2%
CCR5
  inhibition at 20 µM: 14.7%
CCR7
  inhibition at 20 µM: 8.2%
CCR8
  inhibition at 20 µM: 43%
CRHR1
  inhibition at 20 µM: -2.4%
CRHR2
  inhibition at 20 µM: 12%
CXCR5
  inhibition at 20 µM: 5.1%
CXCR6
  inhibition at 20 µM: 33.1%
DRD2L
  inhibition at 20 µM: 3.8%
DRD4
  inhibition at 20 µM: 20.8%
EDG7
  inhibition at 20 µM: 38.6%
EDNRA
  inhibition at 20 µM: 30.7%
EDNRB
  inhibition at 20 µM: 23%
F2R
  inhibition at 20 µM: 11.7%
FFAR1
  inhibition at 20 µM: 42%
GCGR
  inhibition at 20 µM: 2.2%
GIPR
  inhibition at 20 µM: 23.3%
GPR109A
  inhibition at 20 µM: 5.5%
HRH1
  inhibition at 20 µM: 3%
HRH4
  inhibition at 20 µM: 38.1%
HTR1A
  inhibition at 20 µM: 15.2%
HTR5A
  inhibition at 20 µM: 45.6%
MC1R
  inhibition at 20 µM: 10.2%
MRGPRX2
  inhibition at 20 µM: 64.7%
NMBR
  inhibition at 20 µM: 39.7%
OPRK1
  inhibition at 20 µM: 20.1%
OXER1
  inhibition at 20 µM: 18.1%
P2RY1
  inhibition at 20 µM: 5.5%
P2RY4
  inhibition at 20 µM: 68.8%
PTGFR
  inhibition at 20 µM: 43.1%
PTHR1
  inhibition at 20 µM: 17.5%
SSTR3
  inhibition at 20 µM: 41.3%
TACR1
  inhibition at 20 µM: 0.5%
TACR2
  inhibition at 20 µM: 59.3%
VIPR1
  inhibition at 20 µM: -2.9%
